Laboratory results taken from patent publication US20220117917A1, “PH-ACTIVATED NANOPARTICLES” (Ohio State Innovation Foundation, priority 2018, published 2022).

How the values were obtained:
BT474 cells = assay: Cell viability and Western blot; format: cell-based, human
Procedure: (§1) Immunoblotting. Immunoblotting was performed as described previously (Liu Y, et al. Nature 2015 520:697-701). Briefly, total cell lysates were solubilized in lysis buffer (50 mM Tris, pH 7.5, 150 mM NaCl, 1 mM EDTA, 0.5% NP-40, 0.5% Triton X-100, 1 mM phenylmethylsulfonyl fluoride, 1 mM sodium fluoride, 5 mM sodium vanadate, 1 μg each of aprotinin, leupeptin, and pepstatin per ml). Proteins were resolved by SDS-PAGE gels and then proteins were transferred to PVDF membranes (Bio-Rad). The membranes were blocked with 5% nonfat milk for 1 h at room temperature prior to incubation with indicated primary antibodies. Subsequently membranes were washed and incubated for 1 h at room temperature with peroxidase-conjugated secondary antibodies (Santa Cruz Biotechnology). Following several washes, chemiluminescent images of immunodetected bands on the membranes were recorded on X-ray films using the enhanced chemiluminescence (ECL) system (Perkinelmer) according to the manufacturer's instructions.
(§2) Cell viability assay. Equal numbers of cells were plated in 12 well plates in triplicate. After incubation with indicated reagents for 72 hours, cell viability was quantified using Vi-Cell cell viability analyzer (Beckman Coulter).

HER18 cells = assay: Cell viability and Western blot; format: cell-based, human
Procedure: as §1, §2

MDA-MB453 cells = assay: Cell viability; format: cell-based, human; details: 72 h; mutant p53
Procedure: as §2

HER18R cells = assay: Cell viability and Western blot, trastuzumab-resistant cells; format: cell-based, human; details: along with trastuzumab 1 μg/ml, 72 h
Wip1 = target: T1, Wip1 (Homo sapiens, UniProt O15297); details: cited from earlier work
T1 sequence (O15297 1-605): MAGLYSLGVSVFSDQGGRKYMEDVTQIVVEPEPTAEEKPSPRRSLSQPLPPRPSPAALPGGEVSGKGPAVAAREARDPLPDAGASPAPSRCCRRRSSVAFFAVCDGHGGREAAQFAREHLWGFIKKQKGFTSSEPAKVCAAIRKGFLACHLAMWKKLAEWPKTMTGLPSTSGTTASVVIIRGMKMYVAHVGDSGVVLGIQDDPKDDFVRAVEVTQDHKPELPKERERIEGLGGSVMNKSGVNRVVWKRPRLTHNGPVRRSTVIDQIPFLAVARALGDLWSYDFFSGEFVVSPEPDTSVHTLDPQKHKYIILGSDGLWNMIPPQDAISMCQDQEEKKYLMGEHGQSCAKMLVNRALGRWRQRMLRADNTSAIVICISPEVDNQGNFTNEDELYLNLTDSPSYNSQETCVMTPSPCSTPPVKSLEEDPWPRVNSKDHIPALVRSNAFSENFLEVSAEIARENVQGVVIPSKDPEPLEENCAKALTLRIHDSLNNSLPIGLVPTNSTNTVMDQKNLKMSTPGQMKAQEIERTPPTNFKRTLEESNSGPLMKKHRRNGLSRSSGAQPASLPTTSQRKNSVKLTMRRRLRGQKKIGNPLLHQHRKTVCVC

[1] = cited from earlier work
[2] = cited from earlier work; remark: listed apart in the source
[3] = set-up: species or system mice; details: mouse, in vivo
Procedure: The tumor targeting capability of the nanoparticles was next investigated in mice. Indocyanine green (ICG) was encapsulated in the nanoparticles for in vivo imaging. […] To confirm the observation from whole animal imaging, various organs were harvested for ex vivo imaging to check the biodistribution of ICG after sacrificing the mice at 24 h. […] The antitumor efficacy and safety of the WIP1 and/or miR-21 inhibitor-laden nanoparticles were also investigated in vivo by treating orthotopic HER18R mammary tumor-bearing mice. The tumors were established by injecting 2,000,000 HER18R cells per animal into the fat pad of 6-8 week-old female nude mice. The tumor-bearing mice were divided randomly into four groups: blank nanoparticles, WIP1 inhibitor-laden nanoparticles, miR-21 inhibitor-laden nanoparticles, and WIP1+miR-21 inhibitors-laden nanoparticles. Mice were treated with 1.0 mg/kg body weight of miR-21 inhibitor and/or 5.0 mg/kg of WIP1 inhibitor encapsulated in the nanoparticles via intravenous injection when the tumor reached a volume of ˜150 mm^3 at 21 days after implantation. […] Moreover, side effect of the drug-laden or blank nanoparticles was negligible.

[4] = Electrophoretic stability assay of anti-miR21 oligonucleotide; format: in vitro ADME; details: 37° C.
Procedure: Electrophoretic gel assay. Free anti-miR21 oligonucleotide and in-MW@NP (in PBS or serum) were mixed with loading buffer, and then loaded into 2% wt agarose gel with […] ethidium bromide. Electrophoresis was conducted in 1×TEA buffer at 80 V for 10 min. The result gels were analyzed using a UV illuminator (FluorChem™ E System, CA, USA) to show its location of anti-miR21 oligonucleotide.

Compound: Cc1ncc(Cl)cc1NCc1ccc(C(=O)N[C@@H](CC2CCCC2)C(=O)NC2CC2)s1 [GSK2830371]
- sensitivity (cell viability) (BT474 cells; 72 h, mutant p53): notably insensitive
- sensitivity (cell viability) (HER18 cells; 72 h, wildtype p53): very sensitive
- phosphorylated CHK2 and p21 levels (HER18 cells; immunoblotting): significantly increased the levels of phosphorylated CHK2 and the p53-induced p21
- sensitivity (cell viability) (MDA-MB453 cells): notably insensitive
- sensitization to trastuzumab (HER18R cells): sensitized
- selectivity for Wip1 over other phosphatases (Wip1): selectivity for Wip1 over 21 other phosphatases
- solubility in water [1]: poor solubility in water
- bioavailability in vivo [2]: poor bioavailability in vivo

Compound: CC1(C)C(/C=C/C=C/C=C/C=C2\N(CCCCS(=O)(=O)O)c3ccc4ccccc4c3C2(C)C)=[N+](CCCCS(=O)(=O)[O-])c2ccc3ccccc3c21 [free ICG, Indocyanine green]
- ICG fluorescence in liver [3]: weak fluorescence
- ICG signal / localization [3]: no notable signal

Compound: anti-miR-21: anti-miR-21 oligonucleotide; in some embodiments UCAACAUCAGUCUGAUAAGCUAG (SEQ ID NO: 5) (further chemistry not given here)
- cell proliferation and viability (BT474 cells; HER2+/p53-mutant cells with 17q23 amplification): significantly reduced the cell proliferation and viability
- sensitization to trastuzumab (HER18R cells): sensitized
- onset of degradation [4]: started to degrade in a few minutes
- time oligonucleotide observable ([4]; up to 36 h): less than 2 h
- stability in blood ([2]; in vivo): relatively unstable in blood
